Tested on: Myelin Basic Protein (MBP) expression
Assay: MBP expression in PMP22 TG sensory neuron/Schwann cell co-cultures (in vitro model of CMT1A)
Format: cell-based, rat
Settings: day 10 (=17 days of culture), doses 1 and 6, in presence of ascorbic acid, compared to control
Description: A model of co-culture was used as an in vitro model of CMT1A. This model of myelination consists in co-culturing sensory neurons and Schwann cells from male PMP22 Transgenic (TG) dissociated Dorsal Root Ganglia (DRG).
The aim of this study is to assess the effect of 3 test compounds (+/− baclofen, naltrexone and sorbitol) and Mix7 (a mixture of these 3 drugs) on myelination process. The effect of the 3 test compounds, and their mixture on myelination, are assessed by evaluating Myelin Basic Protein (MBP) expression in presence of ascorbic acid.
Each embryo is dispatched on numerating petri dish (35 mm of diameter). The head of embryo is cut, placed on 1.5 ml tube DNAase free; the ADN is extracted with the Extract-N-Amp Tissue Kit (Sigma Aldrich). The genotyping (Male (M) and female (F), wild type and PMP22 transgenic) is performed with the kit Fast SYBR Green Master Mix (Applied Biosystem). This genotyping is performed in parallel of the dissection of dorsal root ganglia (DRG), so that at the end of the dissection, only one type of culture (DRG from transgenic male) is done. DRG of each embryo is collected, placed in ice-cold medium of Leibovitz (L15, Invitrogen). At the end of the dissection, DRG of TGM are pooled and dissociated by trypsinization (trypsin EDTA, 0.05%; Invitrogen) for 20 min at 37° C. The reaction is stopped by addition of DMEM containing 10% of fetal bovine serum (FBS) in the presence of DNAase I (Roche). The suspension is triturated with a 10 ml pipette. Cells are then centrifuged at 350×g for 10 min at room temperature. […] Viable cells are counted in a Neubauer cytometer using the trypan blue exclusion test (Sigma) and seeded on the basis of 10 000 cells per well in 96 well-plates (Greiner) treated with poly-L-lysine. […]
Three separate and independent cultures of DRG (from TG embryos male rats) are done. These conditions are assessed in presence of ascorbic acid, 6 wells per condition. The solution ready to use of all test compounds are extemporaneously prepared from a stock solution, stored at −20° C. […]

Structure (SMILES)	MBP expression
NCC(CC(=O)O)c1ccc(Cl)cc1 (racemic) [(RS)-baclofen]	no substantial effect
OC[C@@H](O)[C@@H](O)[C@H](O)[C@@H](O)CO [D-sorbitol]	no substantial effect
O=C1CC[C@@]2(O)[C@H]3Cc4ccc(O)c5c4[C@@]2(CCN3CC2CC2)[C@H]1O5 [naltrexone]	no substantial effect

Source: patent US10583135B2, “Compositions for treating CMT and related disorders” (Pharnext, priority 2009, dated 2020)
